Experimental data published in PubChem BioAssay (NCI).
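These data come from cells grown in 96-well plates and exposed to compound for 48 hours at five concentrations. GI50 is the concentration that inhibits growth by half. Definition used: TGI = concentration required for complete inhibition of growth.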 Where a SMILES comes first, the peptide text is derived from it. The star is where a group is joined. Palmitoyl = CCCCCCCCCCCCCCCC(=O)*

How the values were obtained:
Experiment in all cases: inhibition of tumour cell growth, NCI panel, 48 h
[1] = tested on: EKVX NSCLC
[2] = tested on: HCT-15 colon
[3] = tested on: M14 melanoma
[4] = tested on: NCI-H23 lung
[5] = tested on: NCI-H522 lung
[6] = tested on: OVCAR-3 ovarian
[7] = tested on: SN12C renal
[8] = tested on: UACC-62 melanoma
[9] = tested on: BT-549 breast
[10] = tested on: KM20L2 colon

| SMILES | TGI [1] | TGI [2] | TGI [3] | TGI [4] | TGI [5] | TGI [6] | TGI [7] | TGI [8] | TGI [9] | TGI [10] | GI50 [9] | GI50 [1] | GI50 [2] | GI50 [4] | GI50 [5] | GI50 [6] | GI50 [7] | GI50 [8] | GI50 [3] |
| --- | --- | --- | --- | --- | --- | --- | --- | --- | --- | --- | --- | --- | --- | --- | --- | --- | --- | --- | --- |
| CON(C)c1nc(N(C)OC)nc(N(C)OC)n1 | > 10 µM | > 10 µM | > 10 µM | > 10 µM | > 10 µM | > 10 µM | > 10 µM | > 10 µM |  |  |  |  |  |  |  |  |  |  |  |
| Nc1nc(O)c2ncn([C@H]3CC[C@@H](CO)O3)c2n1 |  | > 100 µM | > 100 µM | > 100 µM |  | > 100 µM | > 100 µM | > 100 µM | > 100 µM |  |  |  |  |  |  |  |  |  |  |
| COC(=O)C1=C(OC(=O)/C(=C/c2ccc(Cl)cc2)c2ccc(Cl)cc2)C(C(=O)OC)[C@]2(O)[C@@H](C(=O)OC)[C@H]1C[C@@H](c1ccccc1)[C@@H]2C(=O)OC (stereo not given in full) | > 100 µM | > 100 µM | > 100 µM | > 100 µM | > 100 µM | > 100 µM | > 100 µM | > 100 µM | > 100 µM |  |  |  |  |  |  |  |  |  |  |
| CC(N)Cc1ccc(Cl)c(Cl)c1 (stereo not given) | > 100 µM | 84.9 µM | 33.9 µM | > 100 µM | > 66.9 µM | > 100 µM | > 74 µM | 50.2 µM |  | 53.7 µM |  |  |  |  |  |  |  |  |  |
| Cc1c(-c2ccccc2)[nH]c2cc(Cl)ccc2c1=O | > 100 µM | > 100 µM | > 100 µM | > 100 µM |  | > 100 µM | > 100 µM | > 100 µM | > 100 µM |  |  |  |  |  |  |  |  |  |  |
| C/C(=N/N=C(\[O-])c1ccncc1)C(F)(F)F.C/C(=N\N=C(/[O-])c1ccncc1)C(F)(F)F.[Ni+2] | > 1 µM | > 1 µM |  | > 1 µM |  |  |  |  | > 1 µM |  | > 1 µM | > 1 µM | > 1 µM | > 1 µM |  |  |  |  |  |
| COc1cc(C(C)O)c[n+](Cc2ccccc2)c1 (stereo not given) | > 100 µM | > 100 µM | > 100 µM | > 100 µM | > 100 µM | > 100 µM | > 100 µM | > 100 µM |  | > 100 µM |  |  |  |  |  |  |  |  |  |
| Nc1[nH]c(=O)nc2c1cnn2C1CCCCO1 (stereo not given) | > 100 µM | > 100 µM | > 100 µM | > 100 µM |  |  | > 100 µM |  |  | > 100 µM |  |  |  |  |  |  |  |  |  |
| CC(C)C(C(=O)O)N1C(=O)c2ccccc2C1=O (stereo not given) | > 100 µM | > 100 µM | > 100 µM | > 100 µM | > 100 µM | > 100 µM | > 100 µM | > 100 µM | > 100 µM |  |  |  |  |  |  |  |  |  |  |
| CCN1CCC(O)(/C=C/c2ccccc2C)C(C(=O)/C=C/c2ccccc2C)C1 (stereo not given) | 16.8 µM | 3.8 µM | 4.45 µM | 4.11 µM |  | 4.77 µM | 4.6 µM | 10.7 µM | 6.44 µM |  |  |  |  |  |  |  |  |  |  |
| CC12C=CC(=O)C=C1CCC1C3CCC(O)(C(=O)CO)C3(C)CC(O)C12F (stereo not given) | > 100 µM | > 100 µM | > 100 µM | > 100 µM | > 100 µM | > 100 µM | > 100 µM | > 100 µM | > 100 µM | > 100 µM |  |  |  |  |  |  |  |  |  |
| CN1C(c2ccccc2)CC(=O)C(N)C1c1ccccc1 (stereo not given) | > 80.4 µM | > 63.1 µM | > 69.2 µM | > 100 µM | 33.7 µM | > 86.3 µM | 97.6 µM | 81.2 µM |  | > 90.6 µM |  |  |  |  |  |  |  |  |  |
| c1ccc(-c2nc(N3CCNCC3)c3oc(-c4ccccc4)nc3n2)cc1 |  | 3.51 µM |  | 3.39 µM | 4.51 µM | 3.21 µM | 2.98 µM | 3.11 µM |  |  |  |  | 1.8 µM | 1.76 µM | 1.99 µM | 1.74 µM | 1.61 µM | 1.72 µM |  |
| CCCC1CCC(=C2C(=O)CCC2=O)O1 (stereo not given) | > 100 µM | > 100 µM | > 100 µM | > 100 µM | > 100 µM | > 100 µM | > 100 µM | > 100 µM | > 100 µM |  |  |  |  |  |  |  |  |  |  |
| C=C(C)C1Cc2c(c3ccccc3n(C)c2=O)O1 (stereo not given) | > 100 µM | > 100 µM | > 100 µM | > 100 µM | > 100 µM | > 100 µM | > 100 µM | > 100 µM |  | > 100 µM |  |  |  |  |  |  |  |  |  |
| CCCCCCCCCCCCCCCC(=O)N1CCCC1C(=O)NCC(=O)NC(Cc1ccccc1)C(=O)NC(C)C(=O)NC(CO)C(=O)NC(Cc1ccc(O)cc1)C(=O)NC(CCCCN)C(=O)NC(CC(C)C)C(=O)NC(CCCN=C(N)N)C(=O)N1CCCC1C(=O)NCC(N)=O (stereo not given) (Palmitoyl-PGFASYKLRPG-NH2; configuration not given here) | 52.1 µM |  | 35.3 µM | 58.9 µM | 46.9 µM | 56.6 µM |  |  | 45.3 µM |  | 21.9 µM | 20.1 µM |  | 23.6 µM | 20.2 µM | 24.2 µM |  |  | 16.8 µM |
| Cn1c(-c2ccccc2)cc(-c2cccs2)c1-c1cccs1 | > 100 µM | > 100 µM |  | > 100 µM | > 100 µM | > 100 µM | > 100 µM | > 100 µM |  | > 100 µM |  |  |  |  |  |  |  |  |  |
